The values below come from US10538567B2, “Compounds as peptidic trigonal GLP1/glucagon/GIP receptor agonists” (priority 2016, dated 2020).

Series [1] in a line: Chemical stability assessment, UPLC-UV purity loss in buffer system A. The class given is physicochemical. Particulars: 1 mg/ml, 25 mM acetate buffer pH 4.5 with m-cresol. The procedure, abridged:
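Peptide at 1 mg/mL pure compound (purity-corrected) in 25 mM acetate buffer pH 4.5 with L-methionine, m-cresol and glycerol was sterile-filtered and stored 28 days at 5 and 40° C. UPLC-UV purity (peptide peak area/total area) was compared with the starting value to give relative purity loss in %.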

Series [2] in a line: Thioflavin T (ThT) assay for physical stability (fibrillation). The class given is physicochemical. Conditions: 3 mg/ml, 100 mM acetate pH 4.5 with m-cresol, 37° C. shaking. Summed up:
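Peptides at 3 mg/ml final with 100 μM ThT final in 100 mM acetate pH 4.5 containing 2.7 mg/mL m-cresol, eight replicates. Stressed at 37° C by repeated cycles of 10 s shaking at 960 rpm and 50 s rest. Fluorescence read every 20 minutes; lag time in hours taken from the sigmoidal kinetic curve.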

In series [3] the test system is female diabetic db/db mice. Kind of series: Acute effects after s.c. treatment on blood glucose in non-fasting female diabetic db/db mice. The class given is in vivo. Particulars: single 30 μg/kg s.c. As to the method: Female healthy, lean BKS.Cg-(lean)/OlaHsd and diabetes-prone, obese BKS.Cg-+Lepr^db/+Lepr^db/OlaHsd mice were ordered group housed from Envigo RMS Inc., shipped group housed and remained group housed in shoebox caging with wood chip bedding until day 15 of the predose phase. At the study start mice were approximately 12 weeks old.
Mice were housed under vivarium conditions including a 12 h light/dark cycle (light phase 04:00 AM-4:00 PM), room temperatures between 23-26° C. and a relative humidity between 30-70%. All animals had free access to water and Purina Fomulab Diet 5008.
On predose day 9 blood glucose and body mass (approximately between 08:00-10:00 AM) as well as HbA1c measurements were performed. On day 15 of the predose phase animals were assigned to treatment groups (n=8) and to new cages to match mean HbA1c and body masses between all db/db groups. An age-matched lean group was included in the study as a healthy, lean reference.
Prior to day 1 of the dosing phase, the test article was diluted with Phosphate Buffered Saline (PBS, Gibco, without CaCl2 and MgCl2) to a concentration of 1 mg/mL and aliquots of this stock solution were stored at approximately ≤−60° C. On day 1 of the dosing phase the stock aliquot was thawed and the injected test article solution was prepared fresh by diluting it with PBS to achieve the desired concentration.
On Day 1 of the dosing phase db/db mice were either treated once with a s.c. injection of PBS-vehicle or 30 μg/kg test article. The lean reference group was treated once with a s.c. injection of PBS-vehicle. The dosing was initiated and completed between 08:00 and 10:00 AM. The applied volume was 5 ml/kg and the dose was adjusted to the most recent body mass recording of each individual.
Animals had unlimited access to water and feed during the experiment. On day 1 of the dosing phase approximately 5 μL of blood were collected via tail clips at minute −30 and 0 prior to any other inlife activities. At minute 0 mice received a s.c. dose of either PBS-vehicle or 30 μg/kg test article. Further blood samples were harvested at hour 0.25, 0.5, 1, 1.5, 2, 3, 4, 6, 8, and 24 post-dose. Glucose measurements were performed in whole blood using AlphaTRAK glucometers. If the glucose concentrations of two measurements differed by more than 20 mg/dL a third value was recorded. The Area Under the Curve (AUC) for blood glucose was calculated via the trapezoid method and for the duration of the 24 post-dose hours.
In the Figures data are depicted as means±SEM. […] A One Way Analysis of Variance and multiple comparisons (Dunnett's Method) were performed comparing the group of diabetic, obese db/db vehicle mice (n=8) with each diabetic, obese db/db test article treated mice (n=8). […] Non-diabetic, lean-vehicle group data are depicted in the Figures serving as a reference dataset for the non-obese, non-diabetic state.

Numbered stars: 1 amine (or outer) side, 2 acyl side, 3 side chain; on linkers, the order of the positions; unused ones are H or OH. Square brackets hold non-standard residues; d marks the D form. Side chains are listed from the residue outwards. Peptide text beside a SMILES is read from it. * marks the point of attachment. γGlu = O=C(O)[C@H](CCC(=O)[*:2])N[*:1]; Palmitoyl = CCCCCCCCCCCCCCCC(=O)*; Aib = CC(C)(N)C(=O)O

Turning to `CCCCCCCCCCCCCCCC(=O)N[C@@H](CCC(=O)N[C@@H](CCC(=O)NCCCC[C@H](NC(=O)[C@H](CC(C)C)NC(=O)[C@H](CCCCN)NC(=O)[C@H](CO)NC(=O)[C@H](CC(C)C)NC(=O)[C@H](CC(=O)O)NC(=O)[C@H](CO)NC(=O)[C@@H](NC(=O)[C@H](Cc1ccccc1)NC(=O)[C@@H](NC(=O)CNC(=O)[C@H](Cc1c[nH]cn1)NC(=O)C(C)(C)NC(=O)[C@@H](N)Cc1c[nH]cn1)[C@@H](C)O)[C@@H](C)O)C(=O)N[C@@H](CCC(=O)O)C(=O)N[C@@H](CCC(=O)O)C(=O)N[C@@H](CCC(N)=O)C(=O)N[C@@H](CCCNC(=N)N)C(=O)N[C@@H](CCC(N)=O)C(=O)N[C@@H](CCCCN)C(=O)N[C@@H](CCC(=O)O)C(=O)N[C@@H](Cc1ccccc1)C(=O)N[C@H](C(=O)N[C@@H](CCC(=O)O)C(=O)N[C@@H](Cc1c[nH]c2ccccc12)C(=O)N[C@@H](CC(C)C)C(=O)N[C@@H](CCCCN)C(=O)N[C@@H](C)C(=O)N[C@H](C)C(=O)NCC(=O)N1CCC[C@H]1C(=O)N1CCC[C@H]1C(=O)N[C@@H](CO)C(=O)NC(C)(C)C(=O)N[C@@H](CCCCN)C(=O)N1CCC[C@H]1C(=O)N1CCC[C@H]1C(=O)N1CCC[C@H]1C(=O)N[C@@H](CCCCN)C(N)=O)[C@@H](C)CC)C(=O)O)C(=O)O` [SEQ ID NO: 9, H-Aib-H-G-T-F-T-S-D-L-S-K-L-K[gGlu-gGlu-Palm]-E-E-Q-R-Q-K-E-F-I-E-W-L-K-A-dAla-G-P-P-S-Aib-K-P-P-P-K-NH2] (H-H[Aib]HGTFTSDLSKLK([γGlu-γGlu-Palmitoyl])EEQRQKEFIEWLKA[dA]GPPS[Aib]KPPPK-NH2), in series [1], the “Chemical stability [relative purity loss 28 days 40° C.] (%) at pH 4.5” value is 6.9%. The “Lag time before increase” value in series [2] is on record as greater than 45 h. Also, the “mean blood glucose concentration 24 hours post-dose relative to baseline” value in series [3] is reported as “at or close to baseline”.

For the compound `CCCCCCCCCCCCCCCC(=O)N[C@@H](CCC(=O)N[C@@H](CCC(=O)NCCCC[C@H](NC(=O)[C@H](CC(C)C)NC(=O)[C@H](CCCCN)NC(=O)[C@H](CO)NC(=O)[C@H](CC(C)C)NC(=O)[C@H](CC(=O)O)NC(=O)[C@H](CO)NC(=O)[C@@H](NC(=O)[C@H](Cc1ccccc1)NC(=O)[C@@H](NC(=O)CNC(=O)[C@H](Cc1c[nH]cn1)NC(=O)C(C)(C)NC(=O)[C@@H](N)Cc1c[nH]cn1)[C@@H](C)O)[C@@H](C)O)C(=O)N[C@@H](CCC(=O)O)C(=O)N[C@@H](CCC(=O)O)C(=O)N[C@@H](CCC(N)=O)C(=O)N[C@@H](CCCNC(=N)N)C(=O)N[C@@H](CCC(N)=O)C(=O)N[C@@H](CCCCN)C(=O)N[C@@H](CCC(=O)O)C(=O)N[C@@H](Cc1ccccc1)C(=O)N[C@H](C(=O)N[C@@H](CCC(=O)O)C(=O)N[C@@H](Cc1c[nH]c2ccccc12)C(=O)N[C@@H](CC(C)C)C(=O)N[C@@H](CCCCN)C(=O)N[C@@H](C)C(=O)NCC(=O)NCC(=O)N1CCC[C@H]1C(=O)N1CCC[C@H]1C(=O)N[C@@H](CO)C(=O)NC(C)(C)C(=O)N[C@@H](CCCCN)C(=O)N1CCC[C@H]1C(=O)N1CCC[C@H]1C(=O)N1CCC[C@H]1C(=O)N[C@@H](CCCCN)C(N)=O)[C@@H](C)CC)C(=O)O)C(=O)O` [SEQ ID NO: 8, H-Aib-H-G-T-F-T-S-D-L-S-K-L-K[gGlu-gGlu-Palm]-E-E-Q-R-Q-K-E-F-I-E-W-L-K-A-G-G-P-P-S-Aib-K-P-P-P-K-NH2], in series [1], the “Chemical stability [relative purity loss 28 days 40° C.] (%) at pH 4.5” value amounted to 10.3%. For the same compound, the “Lag time before increase” value in series [2] is listed as greater than 45 h. In addition, in series [3], the “mean blood glucose concentration 24 hours post-dose relative to baseline” value was “at or close to baseline”.
